The test system of assay [1] is ovariectomized C57B6 normal mice (IGFBP-2 +/+). Description: Body composition MRI analysis in ovariectomized genetically normal mice. The class given is in vivo, mouse. To be noted: for Fat / Body weight: 2.5 mg/kg. The method, then: Experiments were conducted in which the HBD-2 peptide was administered to genetically normal, ovariectomized mice to determine if it would induce fat loss. The purpose of this experiment was to determine if the peptide could alter fat mass in ovariectomized mice. Estrogen deficient mice are known to gain fat mass following removal of the ovaries. Since the peptide had not been tested in an animal model that had not been genetically manipulated and since it had not been tested in a condition wherein fat mass had been acquired previously to determine if it could reduce pre-existing fat mass this experiment was undertaken. The experimental design was as follows.
(§1) There were 8 mice in each treatment group. C57B6 normal mice underwent ovaryectomy at age 8 weeks. They were then maintained on a normal Chow diet (6% fat) for three weeks. At that time they were treated with 2.5 mg/kg of the active peptide injected subcutaneously two days per week for four weeks. The peptide is the pegylated HBD-2 peptide described herein,
(§2) A second treatment group that had also undergone ovariectomy was treated with the identical concentration of a control peptide that contained the same amino acids but in a scrambled order. A third group underwent sham surgery wherein an incision was made and then closed and the ovaries were not removed. For comparison the response of mice that had had the IGF BP-2 gene deleted were treated in the same manner.
(§3) Eight mice underwent and were treated with the active peptide for four weeks as described for the normal animals. Eight additional mice received the control peptide and eight mice received the sham procedure. The animals were weighed weekly. After 4 weeks they underwent MRI analysis to determine body composition. Both lean mass and fat mass were quantified and the percent fat as a percent total body weight was determined mathematically.

For assay [2], the system named is ovariectomized IGFBP-2 −/− mice. Kind of assay: Body composition MRI analysis in ovariectomized IGFBP-2 knockout mice. Type of assay: in vivo, mouse. Particulars: IGFBP-2 −/− OVX mice, 2.5 mg/kg sc two days per week for four weeks; for Fat: 2.5 mg/kg. The method, then:
as §1, §2, §3

Assay [3] relates to IGFBP-2−/− mice. Kind of assay: Inguinal and visceral fat pad, liver and heart weights at sacrifice. Type of assay: in vivo, mouse. Particulars: after 12 weeks; pegylated peptide 50 μg IP 3 times/week; mean±SE. Here is the method: (§4) Body fat and lean muscle mass was measured at weeks 0 and 12 of treatment by magnetic resonance imaging analysis (EchoMRI-100, Echo Medical Systems, Houston, Tex.), a technique that measures fat mass and lean mass in unanesthetized animals (Kelly S A, et. al., 2010). After completion of 12 weeks of treatment, the mice were sacrificed. Blood was collected by cardiac puncture and allowed to sit for 4 hours before centrifuging at 3500 rpm×15 min. The serum was aspirated and stored at −20° C. until analysis. Abdominal inguinal and visceral fat pads were carefully dissected from each animal according to defined anatomical landmarks. All subcutaneous fat between the lower part of the rib cage and the upper thigh was considered abdominal subcutaneous inguinal fat, whereas all fat found along the mesentery starting at the lesser curvature of the stomach and ending at the sigmoid colon was considered visceral fat. Fat depots were blotted dry prior to weighing. The right inguinal fat pad was dissected separately and the triglyceride content of this tissue was determined by a colorimetric analysis (Pointe Scientific, Canton, Mich.), as previously described (Dann H, Kimura S 1992). Serum adiponectin and leptin were measured by ELISA following manufacturer's instructions (Millipore, Billerica, Mass.).
(§5) Body composition and serum adipokine measurement. Body fat and lean mass were measured at weeks 0 and 12 of treatment by magnetic resonance imaging analysis (EchoMRI-100, Echo Medical Systems, Houston, Tex.), using unanesthetized animals. After 12 weeks of treatment, the mice were sacrificed and blood was collected by cardiac puncture and centrifuged at 3500 rpm×15 min. The serum was stored at −20° C. Abdominal inguinal and visceral fat pads were dissected from each animal according to defined anatomical landmarks. Subcutaneous fat between the rib cage and the upper thigh was termed subcutaneous inguinal fat, whereas all fat from the lesser curvature of the stomach to the sigmoid colon was termed visceral fat. Fat depots were blotted dry prior to weighing. The right inguinal fat pad was dissected separately and the triglyceride content of this tissue was determined by a calorimetric analysis (Pointe Scientific, Canton, Mich. Serum adiponectin and leptin were measured by ELISA following manufacturer's instructions (Millipore, Billerica, Mass.).

The subject of assay [4] is IGFBP-2−/− mice. Description: Body composition (fat and lean mass) by EchoMRI at weeks 0 and 12. The class given is in vivo, mouse. Particulars: weeks 0 to 12; pegylated peptide 50 μg IP 3 times/week; mean±SE. Here is the method: as §4, §5
In assay [5] the test system is primary preadipocytes from IGFBP-2−/− mice. Description: Differentiation of primary preadipocytes (immunoblot of adiponectin, aP2, PPARγ; Oil Red O staining). Particulars: for effect on differentiation marker expression / preadipocyte differentiation (in words): peptides 6 μg/ml, IGFBP-2 proteins 3 μg/ml, IGF-I 100 ng/ml, in differentiation medium; for % suppression of adiponectin: mean±SE, N=3; for relative potency as inhibitor of adipogenesis / preadipocyte differentiation (in words): comparison between peptides and proteins, immunoblot and Oil Red O. Type of assay: cell-based, mouse. The method, then:
Primary preadipocytes were isolated from epididymal fat pads of 6 week old IGFBP-2^−/− mice. The cells were cultured using a previously described method (Boney, C M et al., 1994). The fat pads were weighed and the tissue was digested with an equal volume (W/V) of collagenase type A (Roche Applied Science, Indianapolis, Ind.) in HEPES buffer (0.1M and 1.5% BSA) for 45 min at 37° C. Following complete digestion, the preadipocytes were separated from the stromal vascular cells by centrifugation at 500×g for 5 min. The pelleted cells were washed with DMEM containing 30 mM glucose (Gibco, Grand Island, N.Y.) and passed through a 100 μm mesh filter (BD Biosciences, Bedford, Mass.). The cells were then plated in 6-well plates (Falcon Corp., Franklin Lakes, N.J.) at a density of 1.2-1.5×10^4 cells/ml in DMEM containing 30 mM glucose supplemented with penicillin (100 U/ml), streptomycin (100 μg/ml), and 10% fetal bovine serum hereafter referred to as standard medium. The cultures had the medium changed every 2 days until they reached confluency. Two day post-confluent cells were then exposed to differentiation medium (serum free DMEM containing 0.5 mM IBMX, 1 μM dexamethasone, and 5 μg/mL insulin) and incubated for 2 days. Experimental treatments that were added to this medium included either wild type IGFBP-2 (3 μg/ml), HBD1 peptide (6 μg/ml), HBD1 control peptide (6 μg/ml), HBD2 peptide (6 μg/ml), HBD2 control peptide (6 μg/ml), HBD1 mutant IGFBP-2 (3 μg/ml) or the HBD2 mutant IGFBP-2 (3 μg/ml). Cultures were maintained for two additional days in the standard medium supplemented with 5 μg/ml insulin. Thereafter, the cultures were kept in the fresh standard medium without insulin for additional two days.
After treatment, the cells were rinsed with PBS for two times and fixed with 10% formalin for 30 min at room temperature. After rinsing with distilled water for twice, 100% propylene glycol (Poly Scientific, Bay Shore, N.Y.) was added and incubated for 5 min. Before adding Oil Red O solution (Poly Scientific, Bay Shore, N.Y.), propylene glycol was removed. The cultures were incubated for 10 min at 60° C. Removing Oil Red O solution, the cultures were incubated with 80% propylene glycol for 5 min, After incubation, the cultures were rinsed with tap water twice. Images were captured using an Olympus IX81 inverted microscope.
Differentiated adipocytes were lysed in ice-cold lysis buffer (Xi et al., 2008). After centrifugation at 14,000×g for 10 min, solubilized proteins were quantified by the Bradford method (Thermo Scientific, Rockford, Ill.). Equal protein amounts of lysates were loaded onto a SDS-polyacrylamide gel and the proteins were separated, then transferred to an Immobilon filter and visualized by immunoblotting using the appropriate antibody. The primary antibody dilutions that were used were 1:1000 for the anti-adiponectin antibody (Affinity BioReagents, Golden, Colo.), 1:500 for the anti-PPARγ antibody (Cell Signaling Technology Inc., Beverly, Mass.), 1:2000 for the anti-apt antibody (ProSci Inc., Poway, Calif.) and 1:5000 for the anti-β-actin antibody (Sigma Chemical Company, St. Louis, Mo.). The immune complexes were visualized using enhanced chemiluminescence (Thermo Fischer Scientific, Rockford, Ill.).
Preadipocytes were prepared from mice and grown in culture as described herein. The respective mouse and human peptides were added to cells and the cells were lysed and the lysates were run on SDS gels as described. Immunoblotting for adiponectin was carried as described. Three concentrations of each peptide, 0.7, 2.0 and 6.0 μg/ml, were compared. The results were expressed as % suppression mean±SE(N=3) and were as follows.
Cell culture of primary preadipocytes. Preadipocytes were isolated from epididymal fat pads of IGFBP-2^−/− mice. The cultures had the medium changed every 2 days until they reached confluency. […]
For orientation: Immunoblotting shows a protein as a band on a membrane.

[6] abbreviates: IGFBP-2 +/+ OVX mice, 2.5 mg/kg sc two days per week for four weeks, MRI.

Data on six molecules can be found in patent publication US20160039897A1, “COMPOUNDS AND METHODS FOR TREATING OBESITY AND CONTROLLING WEIGHT” (THE UNIVERSITY OF NORTH CAROLINA AT CHAPEL HILL, priority 2013, published 2016).

Entries after “also recorded” stand apart in the source; their conditions may differ. No end group written: not given here. mPEG‑maleimide = methoxy-PEG maleimide (couples to the cysteine thiol)

As to “Peg HBD2: HBD2 peptide with added cysteine (CKHGLYNLKQCKMSLNGQR), pegylated with methoxy PEG maleimide (C(mPEG‑maleimide)KHGLYNLKQCKMSLNGQR)”, the results for the Fat % in assay [1] (setting [6]) and in assay [2] (MRI) were 19.42 ± 1.1% and 18.75 ± 1.0%, respectively. Further, the Lean in assay [1] (setting [6]) is 17.40 ± 0.3 g; in assay [2] (MRI), 16.97 ± 0.4 g. In addition, the Total in assay [1] (setting [6]) worked out at 21.65 ± 0.6 g; in assay [2] (MRI), 20.90 ± 0.8 g. For the same molecule, the Fat in assay [1] (IGFBP-2 +/+ OVX mice, 2.5 mg/kg sc two days per week for four weeks, MRI, listed as HBD) is 4.0 ± 0.4 g; in assay [1] (IGFBP-2 +/+ OVX mice, 2.5 mg/kg sc two days per week for four weeks, MRI, listed as active peptide) it was 4.0 g; in assay [2] (MRI), 3.85 g; in assay [2] (MRI, listed as HBD(pept)), 3.85 ± 0.4 g. The Body weight in assay [1] (IGFBP-2 +/+ OVX mice, 2.5 mg/kg sc two days per week for four weeks, listed as HBD) was 23.0 ± 0.8 g; in assay [1] (IGFBP-2 +/+ OVX mice, 2.5 mg/kg sc two days per week for four weeks, listed as active peptide), 23.0 g; in assay [2] it was 21.95 ± 0.8 g. In addition, in assay [1] (OVX mice, after four weeks of treatment), the “body weight and total fat mass (in words)” value is “significantly decreased”. This molecule also came in with an Inguinal fat in the assay with IGFBP-2−/− mice [3] of 0.23 ± 0.02 g. The molecule also showed a Visceral fat with IGFBP-2−/− mice [3] of 0.25 ± 0.02 g. The Fat mass increase in the assay on IGFBP-2−/− mice [4] came to 0.58 ± 0.12 g. In the assay with IGFBP-2−/− mice [4], this molecule registered a Lean mass increase of 3.10 ± 0.57 g.
For “RKGFYKRKQCKPSRGRKR [HBD2 control peptide, reference compound]”, the “effect on differentiation marker expression / preadipocyte differentiation (in words)” value in assay [5] is recorded as “did not affect their expression; also recorded: did not alter their expression”.
As for “KHGRYNLKQCKMSLNGQR [Mouse, mouse IGFBP-2 HBD2 peptide]”, the entries for the “% suppression of adiponectin” value in assay [5] (0.7 μg/ml peptide), in assay [5] (2.0 μg/ml peptide) and in assay [5] (6.0 μg/ml peptide) were 51.2 ± 8.1%, 85.6 ± 11.4% and 95.5 ± 9.9%, respectively. Moreover, the “relative potency as inhibitor of adipogenesis / preadipocyte differentiation (in words)” value in assay [5] is reported as “equipotent”.
As to “CKPLRLSKEEHPLK [HBD1 control peptide, scrambled HBD1 peptide, reference compound]”, in assay [5], the “effect on differentiation marker expression / preadipocyte differentiation (in words)” value is “had no effect”.
Regarding “IGF-I: insulin-like growth factor-I added at 100 ng/ml to differentiation medium [reference compound]”, in assay [5], the “effect on differentiation marker expression / preadipocyte differentiation (in words)” value is given as “no additional effect on cell differentiation”.

B1: native IGFBP-2: native (wild type) insulin-like growth factor binding protein-2; FIG. 2 legend says wild type bovine IGFBP-2 (protein, UniProt P13384 34-317, looked up)
Insulin-like growth …: EVLFRCPPCTPESLAACKPPPGAAAGPAGDARVPCELVREPGCGCCSVCARLEGERCGVYTPRCGQGLRCYPNPGSELPLRALVHGEGTCEKHGDAEYSASPEQVADNGEEHSEGGLVENHVDGNVNLMGGGGGAGRKPLKSGMKELAVFREKVTEQHRQMGKGGKHHLGLEEPKKLRPPPARTPCQQELDQVLERISTMRLPDERGPLEHLYSLHIPNCDKHGLYNLKQCKMSLNGQRGECWCVNPNTGKLIQGAPTIRGDPECHLFYNEQQGARGVHTQRMQ
In the case of B1, in assay [5], the “relative potency as inhibitor of adipogenesis / preadipocyte differentiation (in words)” value was “most potent inhibitors of adipogenesis” and the “effect on differentiation marker expression / preadipocyte differentiation (in words)” value is on record as “inhibited preadipocyte differentiation into mature adipocytes”.
